Measured values taken from publication PMC8575457, “Molecular reconstruction of recurrent evolutionary switching in olfactory receptor specificity” (eLife, 2021).
Positions count from the first letter of the chain named.

What was measured:
Test in all cases: single sensillum extracellular recording, Ir decoder neuron
Conditions in all cases: 1% v/v odor in water, 10 ul, 500 ms pulse; agonist
DmelIr75b^DsecS1 [1] = biological target: T1, DmelIr75b^DsecS1 (Drosophila melanogaster, UniProt A0A1S6EMU4, I210K/M217L/K220Q/N259S/I277M/F289L/Q291K/P473S/G492S/A520T/T523S, form not given); assay type: cell-based
T1 construct: gene IR75b; UAS transgene in Ir decoder neuron; with Ionotropic receptor 8a (D. melanogaster, endogenous)
T1 sequence (A0A1S6EMU4 1-609 I210K/M217L/K220Q/N259S/I277M/F289L/Q291K/P473S/G492S/A520T/T523S): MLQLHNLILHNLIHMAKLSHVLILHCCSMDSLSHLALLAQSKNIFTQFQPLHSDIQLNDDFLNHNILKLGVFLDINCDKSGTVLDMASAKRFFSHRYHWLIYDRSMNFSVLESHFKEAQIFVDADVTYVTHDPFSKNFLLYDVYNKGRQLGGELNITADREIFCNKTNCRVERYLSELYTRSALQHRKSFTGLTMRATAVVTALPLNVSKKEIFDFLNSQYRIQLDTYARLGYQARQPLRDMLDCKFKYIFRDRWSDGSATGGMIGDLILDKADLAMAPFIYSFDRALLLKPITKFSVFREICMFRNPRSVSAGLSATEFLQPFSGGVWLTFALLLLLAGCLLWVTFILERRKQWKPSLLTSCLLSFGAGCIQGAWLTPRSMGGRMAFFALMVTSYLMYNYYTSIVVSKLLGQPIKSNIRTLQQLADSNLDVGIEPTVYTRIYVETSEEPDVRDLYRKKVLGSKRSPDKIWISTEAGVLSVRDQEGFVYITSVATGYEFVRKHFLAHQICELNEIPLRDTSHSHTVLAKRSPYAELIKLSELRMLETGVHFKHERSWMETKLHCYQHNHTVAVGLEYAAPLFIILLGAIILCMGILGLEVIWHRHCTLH
T1 sequence (Q9W365 18-936 partner): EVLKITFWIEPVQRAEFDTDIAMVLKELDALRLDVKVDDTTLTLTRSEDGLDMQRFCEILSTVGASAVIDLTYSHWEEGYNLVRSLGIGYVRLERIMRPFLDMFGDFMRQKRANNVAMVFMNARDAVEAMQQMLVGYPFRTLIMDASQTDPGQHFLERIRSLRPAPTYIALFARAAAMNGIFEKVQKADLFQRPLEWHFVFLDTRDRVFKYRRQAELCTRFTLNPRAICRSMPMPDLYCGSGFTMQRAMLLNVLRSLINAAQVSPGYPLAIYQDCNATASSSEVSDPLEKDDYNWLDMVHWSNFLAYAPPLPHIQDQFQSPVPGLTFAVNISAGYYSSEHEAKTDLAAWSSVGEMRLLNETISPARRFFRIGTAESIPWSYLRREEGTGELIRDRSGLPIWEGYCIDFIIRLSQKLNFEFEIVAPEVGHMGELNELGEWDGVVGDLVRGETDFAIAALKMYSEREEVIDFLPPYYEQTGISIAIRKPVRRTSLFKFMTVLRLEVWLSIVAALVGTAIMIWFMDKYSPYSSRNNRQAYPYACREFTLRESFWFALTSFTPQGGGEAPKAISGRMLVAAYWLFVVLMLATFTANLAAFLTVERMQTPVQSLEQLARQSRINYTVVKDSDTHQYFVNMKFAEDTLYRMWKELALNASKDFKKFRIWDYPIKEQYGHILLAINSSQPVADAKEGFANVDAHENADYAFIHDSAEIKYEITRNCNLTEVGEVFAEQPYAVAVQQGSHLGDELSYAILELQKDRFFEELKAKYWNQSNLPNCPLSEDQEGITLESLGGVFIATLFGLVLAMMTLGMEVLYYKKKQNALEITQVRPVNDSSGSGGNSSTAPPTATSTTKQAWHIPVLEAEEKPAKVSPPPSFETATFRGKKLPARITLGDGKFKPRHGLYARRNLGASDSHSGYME

DsecIr75b = biological target: T2, DsecIr75b (Drosophila sechellia, UniProt A0A1S6EMU3); assay type: cell-based, Drosophila melanogaster
T2 construct: gene IR75b; cDNA, UAS transgene expressed in D. melanogaster Ir decoder neuron with D. melanogaster Ir8a; predicted heterotetramer; with Ionotropic receptor 8a (D. melanogaster, endogenous)
T2 sequence (A0A1S6EMU3 1-609): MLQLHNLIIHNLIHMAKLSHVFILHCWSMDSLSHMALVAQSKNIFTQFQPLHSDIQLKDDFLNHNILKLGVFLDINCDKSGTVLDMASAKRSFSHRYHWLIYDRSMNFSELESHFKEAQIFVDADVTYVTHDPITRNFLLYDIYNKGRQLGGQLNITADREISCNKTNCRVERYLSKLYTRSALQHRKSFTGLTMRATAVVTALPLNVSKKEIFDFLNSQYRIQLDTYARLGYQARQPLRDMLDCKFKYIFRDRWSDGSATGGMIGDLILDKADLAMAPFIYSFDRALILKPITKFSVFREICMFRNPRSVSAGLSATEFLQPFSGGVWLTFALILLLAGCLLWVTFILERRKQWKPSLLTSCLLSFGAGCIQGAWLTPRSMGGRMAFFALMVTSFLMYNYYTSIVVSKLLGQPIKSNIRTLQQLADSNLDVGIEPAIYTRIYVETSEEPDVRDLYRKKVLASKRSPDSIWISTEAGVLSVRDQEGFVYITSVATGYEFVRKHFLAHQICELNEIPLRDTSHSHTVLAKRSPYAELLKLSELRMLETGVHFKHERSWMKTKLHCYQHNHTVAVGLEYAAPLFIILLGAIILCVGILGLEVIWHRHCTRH
T2 sequence (Q9W365 18-936 partner): T1 sequence (Q9W365 18-936 partner)

DmelIr75b^DsecS1 [2] = biological target: T3, DmelIr75b^DsecS1 (Drosophila melanogaster, UniProt A0A1S6EMU4, I210K/M217L/K220Q/N259S/I277M/F289L/Q291K, form not given); assay type: cell-based
T3 construct: gene IR75b; UAS transgene in Ir decoder neuron; with Ionotropic receptor 8a (D. melanogaster, endogenous)
T3 sequence (A0A1S6EMU4 1-609 I210K/M217L/K220Q/N259S/I277M/F289L/Q291K): T1 sequence (A0A1S6EMU4 1-609 I210K/M217L/K220Q/N259S/I277M/F289L/Q291K/P473S/G492S/A520T/T523S) with S473P, S492G, T520A, S523T
T3 sequence (Q9W365 18-936 partner): T1 sequence (Q9W365 18-936 partner)

DmelIr75b = biological target: T4, DmelIr75b (Drosophila melanogaster, UniProt A0A1S6EMU4, T523S); assay type: cell-based
T4 construct: gene IR75b; cDNA, UAS transgene expressed in D. melanogaster Ir decoder neuron with endogenous Ir8a; predicted heterotetramer; with Ionotropic receptor 8a (D. melanogaster, endogenous)
T4 sequence (A0A1S6EMU4 1-609 T523S): T1 sequence (A0A1S6EMU4 1-609 I210K/M217L/K220Q/N259S/I277M/F289L/Q291K/P473S/G492S/A520T/T523S) with K210I, L217M, Q220K, S259N, M277I, L289F, K291Q, S473P, S492G, T520A
T4 sequence (Q9W365 18-936 partner): T1 sequence (Q9W365 18-936 partner)

Question: What does the source list for `CCCCCC(=O)O` [C6, hexanoic acid]?
Answer: solvent-corrected response (spikes/s) (DmelIr75b^DsecS1 [1]): DmelIr75b^DsecS1,4mutS2 still has a significantly increased sensitivity to C6 when compared with DmelIr75b; solvent-corrected response (spikes/s) (DsecIr75b): its response to C6 is significantly smaller than that of DsecIr75b; solvent-corrected response (spikes/s) (DmelIr75b^DsecS1 [2]): DmelIr75b^DsecS1, with significantly increased responses to C6; solvent-corrected response (spikes/s) (DmelIr75b): mutation of the hotspot in DmelIr75b is sufficient to confer novel responses to C5 and C6
